Data from US4339461A, “N-Substituted 3-nitro-benzylamines” (Chevron Research Company, priority 1980, dated 1982).

Columns and labels:
[1] = system: Tomato Early Blight organism, Alternaria solani; test: Fungicidal efficacy, control of Tomato Early Blight on sprayed tomato seedlings; assay type: in vivo; details: for Fungicidal Efficacy - % Control, TEB (Tomato Early Blight): 250 ppm spray, about 12 days; for fungicidal activity on Tomato Early Blight (in words): Table I test
[2] = system: Tomato Late Blight, Phytophthora infestans; assay type: in vivo; details: 250 ppm spray; inoculated one day later; about 12 days
fungi = test: Fungicidal activity overall (tests of Examples 1 and 2, Table I); assay type: in vivo
[3] = system: Powdery mildew pathogen, Erysiphe polygoni; test: Fungicidal efficacy, control of Bean Powdery Mildew on sprayed bean seedlings; assay type: in vivo; details: for Fungicidal Efficacy - % Control, BPM (Bean Powdery Mildew): 250 ppm spray, inoculated one day later, about 10 days; for fungicidal activity on Bean Powdery Mildew (in words): Table I test
Text: The powdery mildew test was made using bean seedlings (variety Bountiful) with well-developed primary leaves. The pathogen was Erysiphe polygoni. […] The treated plants were inoculated one day after spray application of the test compound with the pathogen. […] The rate of infection on the leaves was made after about 10 days. The percent disease control provided by a given test compound was based on the disease reduction relative to untreated check plants. The results are reported in Table I. The test was repeated on Compound No. 1.

malaria = details: disclosed by Burkhalter et al, 1948; cited from earlier work

SMILES	Fungicidal Efficacy - % Control, TEB (Tomato Early Blight) [1]	fungicidal activity (in words) (fungi)	Fungicidal Efficacy - % Control, BPM (Bean Powdery Mildew) [3]	antimalarial activity (in words) (malaria)	also measured
CSc1cccc(N(Cc2cccc([N+](=O)[O-])c2)S(C)(=O)=O)c1 [Compound 6, N-(3-nitrobenzyl)-N-(3'-methylthiophenyl)-methane sulfonamide]	81%	activity comparable to that of Compound 1	–	–	Fungicidal Efficacy - % Control, TLB (Tomato Late Blight) [2]: 75%
CCCN(CCC)Cc1ccc([N+](=O)[O-])cc1 [Compound 3, N,N-dipropyl-4-nitro-benzylamine, reference compound]	0%	no fungicidal activity	0%	antimalarial activity	–
CS(=O)(=O)c1cccc(NCc2cccc([N+](=O)[O-])c2)c1 [Compound 7]	–	activity comparable to that of Compound 1	–	–	Fungicidal Efficacy - % Control, TLB (Tomato Late Blight) [2]: 75%
CSc1cccc(NCc2cccc([N+](=O)[O-])c2)c1 [Compound 5, N-(3'-methylthiophenyl)-3-nitro-benzylamine]	–	activity comparable to that of Compound 1	79%	–	–
CCN(CC)Cc1ccc([N+](=O)[O-])cc1 [N,N-diethyl-4-nitro-benzylamine]	–	–	–	antimalarial activity	–
CCCN(CCC)Cc1cccc([N+](=O)[O-])c1 [Compound 1, N,N-Dipropyl-3-Nitro-Benzylamine]	60%	unexpected fungicidal activity	86%	–	% control, Tomato Early Blight (repeat test) ([1]; 16 ppm): 90%; % control, Tomato Early Blight (repeat test) ([1]; 40 ppm): 90%; % control, Tomato Early Blight (repeat test) ([1]; 100 ppm): 93%; fungicidal activity on Tomato Early Blight (in words) [1]: unexpected fungicidal activity; % control, powdery mildew (repeat test) ([3]; 16 ppm): 0%; % control, powdery mildew (repeat test) ([3]; 40 ppm): 56%; % control, powdery mildew (repeat test) ([3]; 100 ppm): 83%; fungicidal activity on Bean Powdery Mildew (in words) [3]: unexpected fungicidal activity
CCN(CC)Cc1cccc([N+](=O)[O-])c1 [Compound 2, N,N-diethyl-3-nitro-benzylamine, reference compound]	0%	–	0%	antimalarial activity	fungicidal activity on Tomato Early Blight (in words) [1]: no fungicidal activity; fungicidal activity on Bean Powdery Mildew (in words) [3]: no fungicidal activity
CCCN(CCC)Cc1cccc(F)c1 [Compound 4, reference compound]	0%	no fungicidal activity	0%	–	–
